Reference: ChEMBL document CHEMBL1955826, “Acetylenic acid analogues from the edible mushroom Chanterelle (Cantharellus cibarius) and their effects on the gene expression of peroxisome proliferator-activated receptor-gamma target genes” (Bioorg Med Chem Lett, 2012)
Activity calls are given as the source filed them. The calls are words filed in the database; no cut-off is given here.

Assays:
[1] = target: T1, Peroxisome proliferator-activated receptor gamma (Homo sapiens, UniProt P37231); experiment: Agonist activity at human PPARgamma expressed in CHO cells co-transfected with pGL3-PPRE3-TK-luc assessed as transactivation after 24 hrs by firefly luciferase reporter gene assay; type: functional, cell-based
T1 sequence (P37231 whole entry): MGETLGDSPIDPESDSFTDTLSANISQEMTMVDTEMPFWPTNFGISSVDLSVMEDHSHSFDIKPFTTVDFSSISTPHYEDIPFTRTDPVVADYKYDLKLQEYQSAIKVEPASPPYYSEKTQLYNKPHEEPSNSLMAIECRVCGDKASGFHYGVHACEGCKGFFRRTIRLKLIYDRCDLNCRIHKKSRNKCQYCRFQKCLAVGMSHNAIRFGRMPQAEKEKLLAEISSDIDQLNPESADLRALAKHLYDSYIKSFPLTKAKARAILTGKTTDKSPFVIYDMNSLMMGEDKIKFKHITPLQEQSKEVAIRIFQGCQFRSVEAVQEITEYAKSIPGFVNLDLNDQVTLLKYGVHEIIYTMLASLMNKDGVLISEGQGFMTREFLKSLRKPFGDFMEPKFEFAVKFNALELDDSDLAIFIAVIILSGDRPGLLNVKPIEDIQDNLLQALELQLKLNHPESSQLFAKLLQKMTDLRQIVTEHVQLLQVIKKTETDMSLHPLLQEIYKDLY

[2] = target: T2, Peroxisome proliferator-activated receptor delta (Homo sapiens) (UniProt Q03181); experiment: Agonist activity at human PPARdelta expressed in CHO cells co-transfected with pGL3-PPRE3-TK-luc assessed as transactivation at 20 ug/ml after 24 hrs by firefly luciferase reporter gene assay; type: functional, cell-based
T2 sequence (whole entry): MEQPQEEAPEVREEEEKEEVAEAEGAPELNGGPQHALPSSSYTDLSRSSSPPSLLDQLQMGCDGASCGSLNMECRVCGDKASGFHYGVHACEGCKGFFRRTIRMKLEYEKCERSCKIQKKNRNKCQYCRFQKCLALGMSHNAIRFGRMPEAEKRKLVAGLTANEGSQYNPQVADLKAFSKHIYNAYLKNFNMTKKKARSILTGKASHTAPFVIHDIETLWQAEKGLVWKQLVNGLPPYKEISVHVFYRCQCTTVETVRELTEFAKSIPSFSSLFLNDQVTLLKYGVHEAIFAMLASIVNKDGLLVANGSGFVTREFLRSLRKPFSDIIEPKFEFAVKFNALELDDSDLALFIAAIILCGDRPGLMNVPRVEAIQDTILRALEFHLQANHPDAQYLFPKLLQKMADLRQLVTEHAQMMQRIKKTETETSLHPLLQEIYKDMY

[3] = target: T3, Peroxisome proliferator-activated receptor alpha (Homo sapiens) (UniProt Q07869); experiment: Agonist activity at human PPARalpha expressed in CHO cells co-transfected with pGL3-PPRE3-TK-luc assessed as transactivation at 20 ug/ml after 24 hrs by firefly luciferase reporter gene assay; type: functional, cell-based
T3 sequence (whole entry): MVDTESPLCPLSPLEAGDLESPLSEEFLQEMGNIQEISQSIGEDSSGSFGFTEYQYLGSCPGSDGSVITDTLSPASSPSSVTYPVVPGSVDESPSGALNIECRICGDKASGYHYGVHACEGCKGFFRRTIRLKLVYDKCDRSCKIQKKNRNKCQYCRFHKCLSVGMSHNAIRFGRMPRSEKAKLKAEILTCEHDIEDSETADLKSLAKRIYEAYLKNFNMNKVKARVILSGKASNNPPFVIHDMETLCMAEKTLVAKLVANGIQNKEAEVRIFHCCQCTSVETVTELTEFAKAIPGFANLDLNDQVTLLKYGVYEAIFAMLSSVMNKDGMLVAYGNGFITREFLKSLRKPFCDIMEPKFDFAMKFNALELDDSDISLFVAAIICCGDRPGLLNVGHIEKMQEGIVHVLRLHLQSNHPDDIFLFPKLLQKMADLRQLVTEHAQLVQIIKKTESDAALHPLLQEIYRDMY

HepG2 [4] = experiment: Upregulation of PPARgamma in human HepG2 cells by real-time PCR method; type: functional, cell-based
[5] = target: T4, Peroxisome proliferator-activated receptor gamma (Homo sapiens) (UniProt P37231); experiment: Agonist activity at PPARgamma in human HepG2 cells assessed as up-regulation of SCD-1 at 0.5 to 12.5 uM by real-time PCR method; type: functional, cell-based
T4 sequence (whole entry): T1 sequence (P37231 whole entry)

HepG2 [6] = experiment: Upregulation of PPARgamma in human HepG2 cells t 0.5 to 12.5 uM by real-time PCR method relative to control; type: functional

| Compound | EC50 [1] [µM] | Activity [2] | Activity [3] | Activity (HepG2 [4]) | Activity [5] | fold change (FC) (HepG2 [6]) |
| --- | --- | --- | --- | --- | --- | --- |
| CCC/C=C\C#C/C=C/C(O)CCCCCCCC(=O)O (centres undefined) | > 68.4 | inactive | inactive |  |  |  |
| CCC/C=C\C#C/C=C/C(=O)CCCCCCCC(=O)O | 1.88 | inactive | inactive | Dose-dependent effect | inactive | 2.43 |
